{"source": "patent US6783539B1", "about": "“Phototriggerable, collagen-crosslinking compounds for wound closure” (University of Kansas Medical Center, priority 2001, dated 2004)", "assay": "Photoactivated welding of rabbit Achilles tendon pieces, tensile strength by tensiometer", "conditions": "mixture of 1.2 M DPD and 1.2 M DEDA in DMSO between two tendon pieces, 2 W, 500 sec (1,000 J)", "description": "A rabbit Achilles tendon, previously stored at −70° C., was dissected from the remaining muscle, cleaned of fascia and muscle, and divided in half along its length.\nOne tendon piece was placed diagonally on a fused silica (UV transparent) glass slide and several drops of the mixture was placed in the center of the tendon piece. The other tendon piece was placed on top, forming an “X” shape with the mixture in between the two pieces at their intersection. Another identical slide was placed on top and light pressure was applied to the two slides.\nThe tendons and slides were then placed beneath a liquid light guide that delivered light from a filtered mercury-arc light source (320-500 nm, 2 W) and exposed for 500 sec (1,000 J).\nAfter light exposure, the tendons were removed from the slide and placed on an illuminated grid beneath a CCD camera with a macro lens. An image of the overlapped (i.e. “welded”) area was digitized and stored. Measurement of the overlapped area was made using standard computer software.\nThe welded tendon was then placed in a tensiometer to measure tensile strength. One tendon end was clamped and attached to a strain gauge, while the opposite end of the other tendon clamped to a block moved by a lead screw.\nThe maximum force tolerated by the bonded tendon before breaking was divided by the bonded area to calculate the Maximum Stress in Newtons/cm^2."}
{"smiles": "[N-]=[N+]=CC(=O)C(=O)NCCOCCOCCNC(=O)C(=O)C=[N+]=[N-]", "note": "[DPD, N,N′-bis(3-diazapynivoyl)-2,2′-(ethylenedioxy)bis(ethylamine)]", "values": [{"measurement": "Observation of tendon welding after light exposure", "setting": "320-500 nm", "result": "welded together"}, {"measurement": "Maximum Stress (maximum force tolerated by the bonded tendon before breaking divided by the bonded area)", "setting": "filtered mercury-arc light 320-500 nm", "result": 31.7, "unit": "N/cm^2"}]}
